The record followed here is US12410124B2 (priority 2019, dated 2025).

In one assay the test system is primary glial cells. As to the kind of experiment: Inhibition of the NO release of primary glial cells induced by LPS. It is filed as cell-based, rat. The settings on record: for inhibition at 5 µM / inhibition at 10 µM / inhibition at 20 µM / inhibition at 2 µM: Rattus norvegicus, Glial cell, read-out: NO inhibition (%). An excerpt:
Lipopolysaccharide (LPS) is a main component of the cell wall of Gram-negative bacteria. It is a potent inflammatory factor that can directly activate gliocytes, and the activated gliocytes secrete a large amount of inflammation mediators such as tumor necrosis factor, interleukin, and nitric oxide, thus causing inflammatory reactions and oxidative stress reactions and eventually leading to neuronal denaturation and death. In recent years, the targeted injection of LPS into rat substantia nigra or striatum to induce neuroinflammation can successfully establish PD models, which can simulate most of the clinical manifestations and pathological features of PD, and are used for the study on the neuroinflammation mechanism associated with PD. LPS-induced primary glial cell PD inflammation model is suitable for the preliminary anti-neuroinflammation screening for neuroprotective agents. LPS is used to directly activate primary glial cells to simulate the pathogenesis mechanism of neuroinflammation, and the inhibitory activity of the target compounds on the inflammatory response of primary glial cells can be investigated.
The materials were taken from the brain tissue of fetal rat, for primary glial cell culture. At 7 to 10 days of the culture, LPS was added for the activation of nitric oxide (NO) release in glial cells. When a target compound was added, the reduction value for NO content in the cell culture medium was measured, to evaluate the anti-neuroinflammation activity of the compound. The experiment included blank control group, LPS model group, positive control group (caffeic acid phenethyl ester, CAPE), prototype control group (styryl sulfone compounds 3B, 3C, 3D, and 3G, the structures of which compounds are shown as above), and target compound group.

The next assay deals with midbrain p-α-s. As to the kind of experiment: Midbrain p-α-s protein expression in MPTP Parkinson's disease model mouse (western-blotting). It is filed as in vivo. The settings on record: midbrain total protein, GAPDH internal reference, gavage 21 consecutive days after MPTP modeling. The protocol:
(§1) Neurotoxins can be used to establish PD animal models. Currently, 1-methyl-4-phenyl-1,2,3,6-tetrahydropyridine (MPTP) is the sole synthetic toxin which is recognized to induce PD symptoms in human and non-human primates and in mice. Using MPTP subacute modeling method, C57BL/6J male mice were intraperitoneally injected with MPTP 30 mg/kg, once a day for 5 consecutive days. The experiment animals were divided into blank control group, MPTP model group, and compound treatment group. For the […] compound treatment group, the compound was administrated by gavage for 21 consecutive days after the completion of modeling; for the MPTP model group, the normal saline was administrated by gavage for 21 consecutive days after the completion of modeling; and for the blank control group, the normal saline was first intraperitoneally injected for 5 days, and then administrated by gavage for 21 days.
Alpha-synuclein is an “unfolded protein” in its natural state. It exists in a monomeric form, and participates in the physiological functions such as the release of neurotransmitters, the establishment of synaptic junctions, and the regulation of synaptic plasticity. Under pathological conditions, more than 90% of alpha-synuclein is phosphorylated at serine of position 129 and converted into phosphorylated alpha-synuclein (p-α-s), thereby forming Lewy bodies. The formation of Lewy bodies is one of the main pathological manifestations and pathological mechanisms for Parkinson's disease, and plays an important role in the formation and development of PD. The detection of the p-α-s expression in the midbrain and substantia nigra of PD model mice can evaluate the neuroprotective activity of the compound.
Half of experiment mice in each group were taken to extract the total midbrain protein, and the change in the midbrain P-α-s protein expression was determined by western-blotting using GAPDH as the internal reference. The experiment included blank control group, MPTP model group, positive control group (caffeic acid phenethyl ester, CAPE), prototype control group (styryl sulfone compounds 3B, 3C, 3D, and 3G, whose structures are shown as above), and target compound group.

The next assay deals with midbrain pp38. As to the kind of experiment: Midbrain pp38 protein expression in MPTP Parkinson's disease model mouse (western-blotting). Conditions: midbrain total protein, GAPDH internal reference, gavage 21 days after MPTP modeling. It is filed as in vivo. The protocol: as §1
The p38 mitogen-activated protein kinase (p38 MAPK) is expressed in both neurons and glial cells, and is the intersection point of neuron-glial cell network information regulations. The activation of p38 signaling pathway is an important initiator of neuronal degeneration, which continuously induces the apoptosis of dopaminergic neurons in multiple ways. It has become a research hotspot for the treatment of PD. Studies have shown that the protective mechanism of CAPE against the death of primary cultured cerebellar granule neurons induced by glutamate lies in inhibiting the activation of p38 phosphorylation and in turn inhibiting the activation of the caspase 3 apoptotic pathway to prevent neuronal apoptosis. Therefore, the MPTP-induced PD mouse model can be used to investigate the inhibitory effect of the target compounds on the activation of p38 phosphorylation on the overall animal level.
Half of experiment mice in each group were taken to extract the total midbrain protein, and the change in the midbrain phosphorylated p38 protein expression was determined by western-blotting using GAPDH as the internal reference. The experiment included blank control group, MPTP model group, positive control group (caffeic acid phenethyl ester, CAPE), prototype control group (styryl sulfone compounds 3B, 3C, 3D, and 3G, whose structures are shown as above), and target compound group.

A further assay concerns hippocampus GFAP. As to the kind of experiment: Number of hippocampus astrocytes with GFAP positive expression in MPTP Parkinson's disease model mouse (immunohistochemistry). It is filed as in vivo. The settings on record: for Positive cell number (astrocytes with GFAP positive expression): hippocampus, MPTP Parkinson's disease model mouse, immunohistochemistry. The protocol:
as §1
Neuron-glial cell network homeostasis disorder is an important factor for the selective and progressive death of substantia nigra dopaminergic neurons in PD. In the neurotoxic effect of MPTP, the excessive activations of microglial cells and astrocytes produce a variety of inflammatory cytokines and reactive oxygen species (ROS). These inflammatory factors and ROS amplify their respective toxicities and mediate malignant feedback loop, causing a cascade inflammation response and aggravating the pathological process of PD. CD11b and GFAP are the marker proteins for activations of microglial cells and astrocytes, respectively. Therefore, the effect of the target compounds on the activations of the microglial cells and astrocytes in the substantia nigra, hippocampus, and midbrain areas of MPTP-induced PD mice can be investigated, to explore the mechanism of the anti-PD effect of the target compounds by inhibiting the neuroinflammation.
Half of experiment mice in each group were taken to separate the midbrain after perfusion and fixation. The tissue was trimmed, and the hippocampus area was taken to prepare paraffin sections. The GFAP immunohistochemical staining was performed for the statistics of the change in the number of astrocytes with GFAP positive expression. The experiment included blank control group, MPTP model group, positive control group (caffeic acid phenethyl ester, CAPE), prototype control group (styryl sulfone compounds 3B, 3C, 3D, and 3G, whose structures are shown as above), and target compound group.

Read-outs that look alike come from different tables or passages of the source.

As to `CNC(=O)Oc1ccc(/C=C/S(=O)(=O)CC(Cl)c2ccc(Cl)c([N+](=O)[O-])c2)cc1O` (centres unmarked) [Compound E2-2, (E)-4-{2-[2-chloro-2-(4-chloro-3-nitrophenyl)ethylsulfonyl]ethenyl}-2-hydroxyphenyl-N-methylcarbamate], in the assay with primary glial cells, the inhibition at 5 µM is 20.3 ± 4.73%, the inhibition at 10 µM turned out to be 36.8 ± 6.11% and the inhibition at 20 µM was 68.9 ± 3.75%. The “Expression (p-α-s/GAPDH)” value with midbrain p-α-s worked out at 0.45 ± 0.07. Also, the “Expression (pp38/GAPDH)” value with midbrain pp38 is 0.43 ± 0.06. Besides, the “Positive cell number (astrocytes with GFAP positive expression)” value (“Positive cell number” for short) in the assay with hippocampus GFAP is 50 ± 5.

Consider `CCN(CC)C(=O)Oc1ccc(/C=C/S(=O)(=O)Cc2ccc(C(C)(C)C)cc2)cc1OC(=O)N(CC)CC` [Compound G1-1, (E)-4-{2-[(4-t-butylphenyl)mesyl]ethenyl}-1,2-phenylenebis(diethylcarbamate)], for which the “NO inhibitory rate compared with the styryl sulfone prototype compounds” value in the assay on primary glial cells is listed as “equivalent or higher inhibitory rate”. Further, the inhibition at 2 µM in the assay with primary glial cells (2 μM) was 27.2 ± 3.98%. In the assay on primary glial cells (5 μM), the inhibition at 5 µM turned out to be 64.2 ± 3.25%. Moreover, the inhibition at 10 µM in the assay on primary glial cells (10 μM) stood at 85.8 ± 5.01%. For the same compound, the “Expression (p-α-s/GAPDH)” value with midbrain p-α-s was found to be 0.34 ± 0.09. Besides, the “Expression (pp38/GAPDH)” value in the assay on midbrain pp38 was determined as 0.33 ± 0.07. In the assay on hippocampus GFAP, the “number of hippocampus astrocytes with GFAP positive expression compared with the styryl sulfone prototype compounds” value is recorded as “significantly lower” and the “Positive cell number” value came to 66 ± 4.

For `CCOC(CS(=O)(=O)/C=C/c1ccc(OC(C)=O)c(OC(=O)Nc2ccc(NC)cc2)c1)C(OCC)c1ccc(OCc2ccccc2)c(O)c1` (centres unmarked) [Compound H2-4, (E)-4-{2-[3-(4-benzyloxy-3-hydroxyphenyl)-2,3-diethoxypropyl]sulfonylethenyl}-2-[N-(4-methylaminophenyl)carbamoyloxy]phenyl acetate], the inhibition at 2 µM with primary glial cells (2 μM) worked out at 32.2 ± 4.49%. Further, in the assay on primary glial cells (5 μM), the inhibition at 5 µM is 50.1 ± 5.37%. In the assay on primary glial cells (10 μM), the inhibition at 10 µM was 85.4 ± 4.9%. In addition, in the assay on midbrain p-α-s, the “Expression (p-α-s/GAPDH)” value came to 0.53 ± 0.13. For the same compound, in the assay on midbrain pp38, the “Expression (pp38/GAPDH)” value worked out at 0.43 ± 0.05. Also, the “Positive cell number” value in the assay with hippocampus GFAP worked out at 61 ± 5.

On to `COCCN(C)C(=O)Oc1cc(/C=C/S(=O)(=O)CCc2cccc(-c3ccc(C)o3)c2)ccc1OC(C)=O` [Compound J1-4, (E)-2-[N-(2-methoxyethyl)-N-methylcarbamoyloxy]-4-{2-[3-(5-methylfur-2-yl)phenylethylsulfonyl]ethenyl}phenyl acetate], for which, in the assay with primary glial cells, the inhibition at 2 µM came to 24.8 ± 5.02%, the inhibition at 5 µM came out at 40.9 ± 3.94% and the inhibition at 10 µM stood at 69.7 ± 5.85%. In addition, in the assay on midbrain p-α-s, the “Expression (p-α-s/GAPDH)” value came to 0.47 ± 0.11. Besides, in the assay on midbrain pp38, the “Expression (pp38/GAPDH)” value is listed as 0.41 ± 0.08. Further, in the assay with hippocampus GFAP, the “Positive cell number” value is 79 ± 2.

For `CC(Br)C(Br)COc1cc(/C=C/S(=O)(=O)CCc2ccc(OCC(F)(F)F)cc2)ccc1OC(=O)Nc1ccsc1` (centres unmarked) [Compound K1-3, (E)-2-(2,3-dibromobutoxy)-4-{2-[4-(2,2,2-trifluoroethoxy)phenylethylsulfonyl]ethenyl}phenyl-N-(thien-3-yl)carbamate], the inhibition at 5 µM with primary glial cells (5 μM) is 33.3 ± 6.71%. Moreover, the inhibition at 10 µM with primary glial cells (10 μM) is 54.2 ± 4.06%. Moreover, the inhibition at 20 µM in the assay with primary glial cells (20 μM) was determined as 81.4 ± 4.29%. Moreover, in the assay on midbrain p-α-s, the “Expression (p-α-s/GAPDH)” value is on record as 0.34 ± 0.10. Further, the “Expression (pp38/GAPDH)” value in the assay on midbrain pp38 came out at 0.35 ± 0.06. Also, in the assay on hippocampus GFAP, the “Positive cell number” value was determined as 65 ± 5.

`C=CCOc1ccc(C/C=C/S(=O)(=O)/C=C/c2ccc(OC(C)=O)c(OC(=O)N(CC=C)CC=C)c2)cc1` [Compound K1-4, 4-{(E)-2-[(E)-3-(4-allyloxyphenyl)prop-1-en-1-yl]sulfonylethenyl}-2-(N,N-diallylcarbamoyloxy)phenyl acetate]: the inhibition at 2 µM in the assay with primary glial cells (2 μM) stood at 30.2 ± 4.01%. In the assay on primary glial cells (5 μM), the inhibition at 5 µM is 53.5 ± 5.52%. In addition, the inhibition at 10 µM in the assay on primary glial cells (10 μM) came out at 77.4 ± 5.09%. For the same compound, in the assay with midbrain p-α-s, the “Expression (p-α-s/GAPDH)” value turned out to be 0.45 ± 0.12. Also, in the assay on midbrain pp38, the “Expression (pp38/GAPDH)” value was found to be 0.44 ± 0.05. Further, the “Positive cell number” value with hippocampus GFAP worked out at 71 ± 4.

In the case of `COc1cc(/C=C/S(=O)(=O)Cc2cc(OC)c(OC)c(OC)c2)ccc1OC(=O)N(c1ccccc1)c1ccccc1` [Compound K3-3, (E)-2-methoxy-4-{2-[(3,4,5-trimethoxyphenyl)mesyl]ethenyl}-phenyl-N,N-diphenylcarbamate], the inhibition at 5 µM in the assay on primary glial cells (5 μM) worked out at 17.6 ± 3.24%. The inhibition at 10 µM with primary glial cells (10 μM) stood at 40.6 ± 3.11%. In addition, the inhibition at 20 µM with primary glial cells (20 μM) turned out to be 72.5 ± 6.08%. Also, in the assay on midbrain p-α-s, the “Expression (p-α-s/GAPDH)” value came out at 0.62 ± 0.11. Also, the “Expression (pp38/GAPDH)” value with midbrain pp38 is 0.55 ± 0.08. For the same compound, the “Positive cell number” value with hippocampus GFAP came to 69 ± 3.

In the case of `O=C(NC(=O)C(F)(F)F)Oc1ccc(/C=C/S(=O)(=O)C(F)(F)c2ccc(Oc3ccccn3)cc2)cc1OC(=O)C(F)(F)C(F)(F)F` [Compound L1-4, (E)-5-{2-[(4-[pyridin-2-yl-oxy]phenyl)difluoromethylsulfonyl]ethenyl}-2-[N-(2,2,2-trifluoroacetyl)carbamoyloxy]phenyl-2,2,3,3,3-pentafluoropropionate], the inhibition at 2 µM in the assay with primary glial cells (2 μM) is 26.7 ± 6.93%. For the same compound, the inhibition at 5 µM with primary glial cells (5 μM) turned out to be 50.9 ± 3.72%. Also, the inhibition at 10 µM with primary glial cells (10 μM) amounted to 72.3 ± 4.8%. Also, in the assay on midbrain p-α-s, the “Expression (p-α-s/GAPDH)” value was 0.38 ± 0.08. The “Expression (pp38/GAPDH)” value in the assay with midbrain pp38 was 0.28 ± 0.04. For the same compound, the “Positive cell number” value with hippocampus GFAP was determined as 76 ± 4.

For the compound `CCN(C)C(=O)Oc1ccc(/C=C/S(=O)(=O)CC(c2ccc(-c3ccc(OC)c(OC)c3)cc2)[N+](=O)[O-])cc1OC(=O)N(C)CC` (centres unmarked) [Compound M1-1, (E)-4-{2-[2-(3′,4′-dimethoxy-[1,1′-biphenyl]-4-yl)-2-nitroethylsulfonyl]ethenyl}-1,2-phenylenebis(N-ethyl-N-methylcarbamate)], in the assay with primary glial cells, the inhibition at 2 µM came out at 38.3 ± 3.42%, the inhibition at 5 µM is 52.9 ± 5.36% and the inhibition at 10 µM amounted to 82.7 ± 2.47%. Also, the “Expression (p-α-s/GAPDH)” value in the assay with midbrain p-α-s came to 0.27 ± 0.08. Besides, the “Expression (pp38/GAPDH)” value with midbrain pp38 came out at 0.40 ± 0.05. Also, the “Positive cell number” value in the assay with hippocampus GFAP was 51 ± 5.
